Measurements published in patent US6368529B1, “Lignocellulosic composite” (U.S. Borax Inc., priority 2000, dated 2002).

Key:
[1] = Borate content of composite after two weeks water leaching; assay type: physicochemical; conditions: leached two weeks
Procedure: (§1) The panels to be leached (4.5″×4.5″) were edge sealed with an epoxy sealant and leached for two weeks. Leaching began with pressure treatment of the specimens with water for 30 minutes under vacuum and one hour under pressure. The specimens were removed from the pressure treatment chamber and the residual water was changed after two hours, then daily for the remainder of the leaching period. Afterward, they were trimmed to remove the sealed edges and cut into analytical/soil block test samples. Unleached and leached analytical/soil block samples for each board type were separately randomized. Fifteen were analyzed for borate content and ten were retained for the soil block decay test.

[2] = tested on: Gloeophyllum trabeum (ATCC 11539); assay: Soil block decay test (AWPA E10-87), brown rot; assay type: cell-based
Description: (§2) Wood flakeboard was manufactured by conventional wood processing techniques, incorporating various borates at a range of concentrations, from 0.5 to 2.0% boric acid equivalent (BAE). Boric acid (H3BO3) equivalent is a commonly used convention for comparing various borates on an equivalent contained-boron basis. For each borate/loading combination, fifteen pounds of aspen (Populus tremuloides) furnish having an average particle size of about 2.5×0.75×0.025 inches, was blended with 0.75 pounds (5%) Rubinate 1840 (product of ICI), a polymeric methylene diphenyl diisocyanate adhesive, 0.11 pounds (0.75%) of Cascowax EW 403HS (product of Borden) and various concentrations of nine test borates. For each borate/loading combination, three 18″×18″ composite boards of 0.5 inch thickness were formed by pressing for 210 seconds at (180 seconds pressure, 30 seconds pressure release) at 204.5° C. (the pressure was kept in excess of 6000 psi during the pressure cycle). Each board was trimmed to 15″×15″ and cut to produce internal bond and analytical/soil block specimens for evaluation. Replicates were cut from the inner portion of the boards. Four internal bond, two leaching panels and twenty analytical/soil block specimens were cut from each board.
as §1
(§3) The soil block test was conducted in accordance with AWPA E10-87, with the exception that soil block dimensions were 1.0″×1.0″×0.5″. The fungi used were Gloeophyllum trabeum (ATCC 11539) for brown rot test and Trametes versicolor (MAD 697) for white rot test. An untreated composite control was run both unleached and leached. Solid southern yellow pine and birch were also run as unleashed controls against G. trabeum and T. versicolor, respectively as a test of fungal vigor.

[3] = Bulk solids flow testing, J. R. Johanson Indicizer System; assay type: physicochemical
Description: Bulk solids flow testing was done using the J. R. Johanson Indicizer System, including a Hang-up Indicizer and Hopper Indicizer, manufactured by J R Johanson, Inc. 712 Fiero Lane #37, San Luis Obispo, Calif. 93401. The test procedures are described in detail in their company literature (BULK SOLIDS INDICES TESTING, Hang-up Indicizer™ Instruction Manual ©JR Johanson, Inc. 1991 and BULK SOLIDS INDICES TESTING, Hopper Indicizer™ Instruction Manual ©JR Johanson, Inc. 1991). The results are presented in the following Table 3 as the Arching Index, Ratholing Index, Hopper Index and Chute Index, which are the average of several tests (3-6). The meaning and usefulness of these flow indices in evaluating the flow properties of bulk solids are also described in literature from JR Johanson, Inc., including Binside Scoop™, Vol. 7, No. 2, Fall 1994, Binside Scoop™, Vol. 8, No. 3, Winter 1995, and “Bulk solids Flow Indices—A Simplified Evaluation system”, by Jerry R. Johanson, ©JR Johanson, 1991.
Arching Index—A tendency of a cohesive material is to plug up the opening of a bin by forming an “arch” over the discharge opening. The arching index is given as a multiple of the discharge opening, so less than 1 is necessary for free flow. Numbers greater than 1 reflect a need to enlarge the opening.
Ratholing Index—A tendency of a cohesive material is to hang up on the sides of a bin while an open hole forms in the center and flow ceases. Rathole indices are also given as a multiple of the discharge opening and a number of less than 1 is necessary for free flow. Numbers greater than 1 mean the bins should be redesigned.
Hopper Index—The maximum angle, measured in degrees from the vertical, that is required for the conical portion of a hopper in order to produce reliable mass flow. A larger number is better.
Chute Index—The minimum angle, measured in degrees from horizontal, required for flow down a chute and to prevent material buildup at impact areas. A smaller number is better. Chute indices may often be close to the angle of repose.
Both hopper and chute indices measurements involve friction over a specified surface and measurements are made using substrates of the material of construction. The substrates used for these tests are 304-2B Stainless Steel, aged carbon steel and Tivar UHMWPE (ultra high molecular weight polyethylene) plastic.

[4] = tested on: Trametes versicolor (MAD 697); assay: Soil block decay test (AWPA E10-87), white rot; assay type: cell-based
Description: as §2, §1, §3

[5] = leached two weeks, target loading 0.5% BAE (0.09% B)
[6] = leached two weeks, target loading 1.0% BAE (0.17% B)
[7] = leached two weeks, target loading 2.0% BAE (0.35% B)
[8] = unleached aspen flakeboard, target loading 0.5% BAE (0.09% B)
[9] = unleached aspen flakeboard, target loading 1.0% BAE (0.17% B)
[10] = unleached aspen flakeboard, target loading 2.0% BAE (0.35% B)
[11] = multiple of the discharge opening, less than 1 necessary for free flow, average of 3-6 tests

Zinc Borate [reference compound]
Assay % B ([1]; target loading 0.5% BAE (0.09% B)): 0.05 % B
Assay % B ([1]; target loading 1.0% BAE (0.17% B)): 0.10 % B
Assay % B ([1]; target loading 2.0% BAE (0.35% B)): 0.23 % B
Mean % Wt. Loss G. trabeum [2, 5]: 2.3%
Mean % Wt. Loss G. trabeum [2, 6]: 0.9%
Mean % Wt. Loss G. trabeum [2, 7]: 0.8%
Mean % Wt. Loss G. trabeum [2, 8]: 0.9%
Mean % Wt. Loss G. trabeum [2, 9]: 0.8%
Mean % Wt. Loss G. trabeum [2, 10]: 1.0%
Hopper Index Stainless Steel ([3]; 304-2B Stainless Steel, maximum angle from the vertical, larger is better): 13 degrees
Chute Index Stainless Steel ([3]; 304-2B Stainless Steel, minimum angle from horizontal, smaller is better): 38 degrees
Hopper Index Plastic ([3]; Tivar UHMWPE plastic, maximum angle from the vertical, larger is better): 13 degrees
Chute Index Plastic ([3]; Tivar UHMWPE plastic, minimum angle from horizontal, smaller is better): 58 degrees
Hopper Index Carbon Steel ([3]; aged carbon steel, maximum angle from the vertical, larger is better): 12 degrees
Chute Index Carbon Steel ([3]; aged carbon steel, minimum angle from horizontal, smaller is better): 44 degrees
Arching Index [3, 11]: 0.5
Ratholing Index [3, 11]: 2.9
Mean % Wt. Loss T. versicolor [4, 5]: 22.9%
Mean % Wt. Loss T. versicolor [4, 6]: 7.0%
Mean % Wt. Loss T. versicolor [4, 7]: 2.0%
Mean % Wt. Loss T. versicolor [4, 8]: 8.3%
Mean % Wt. Loss T. versicolor [4, 9]: 2.9%
Mean % Wt. Loss T. versicolor [4, 10]: 1.6%
